# Assay results taken from US6638938B1, “Method for preventing tissue injury from hypoxia” (Cell Therapeutics, Inc., priority 1993, dated 2003).
# What was measured:
# [1] = tested on: lungs of mice subjected to hemorrhage and resuscitation; test: lung histology in murine hemorrhage and resuscitation model; assay type: in vivo, Balb/C mice
# Experimental: This example illustrates a study of Lisofylline in a murine hemorrhage and resuscitation model. Male Balb/C mice, 8-12 weeks of age, were obtained from Harlan-Sprague Dawley (Indianapolis, Ind.). The animals were kept on a 12 hour light/dark cycle with free access to food and water. With this model, 30% of the calculated blood volume (approximately 0.55 ml for a 20 gram mouse) was withdrawn from a methoxyflurane anesthetized mouse by cardiac puncture over a 60-second period. The blood was collected into a heparinized syringe (5 units heparin), kept at 37° C. for one hour, then reinfused into the mouse through a retroorbital plexus injection. Using this method, one is able to resuscitate all hemorrhaged mice without complication. The total period of methoxyflurane anesthesia is less than 2 minutes in all cases. The mortality rate with this hemorrhage protocol is approximately 12%, with all deaths occurring over the 24 hours post hemorrhage, and most deaths occurring within the one hour post hemorrhage.
# Mice were treated with 100 mg/kg Lisofylline in 0.2 ml PBS and given initially i.v., by retroorbital injection, then i.p. every 8 hours for a total of 9 doses. In hemorrhaged mice, the Lisofylline in PBS was added to the shed blood, and then given retroorbitally with the blood during the resuscitation phase. In hemorrhaged Balb/C mice (n=3), sacrificed by exsanguination 5 minutes after receiving Lisofylline with the blood used for resuscitation, serum levels of Lisofylline were 44±6 μg/ml.
# At 3 days following hemorrhage and resuscitation or the initiation of Lisofylline treatment, mice were sacrificed and the pulmonary circulation flushed with chilled PBS injected into the right ventricle, as described above. The left lower lobe of the lungs was placed into formalin. Hematoxylin and eosin sections of the lungs were prepared, and examined in a blinded fashion by a pulmonary pathologist who was unaware of the group to which the individual animal belonged. Lungs from normal, unmanipulated Balb/C mice also were included as additional controls. The histopathologic findings were scored on a 0 to 3 scale (with 0 being normal and 3 being the most severe change) for the following variables: a) neutrophil infiltration into the pulmonary interstitium; b) intraaveolar hemorrhage; and c) interstitial edema.
# Groups of 6 to 8 mice were used for each condition. For each experimental condition, the whole group of animals was prepared and then studied at the same time. Cells, mRNA, BAL supernatants, and plasma were obtained individually from eachanimal, and then were analyzed individually before calculating group data. Data are presented as mean±standard error of the mean (SEM) for each experimental group. One-way analysis of variance and the Student Newman Keuls test were used for comparisons between normal, nominal treated, hemorrhage/treated and hemorrhage data groups. A P value of less than 0.05 was considered significant.
# human neutrophils = test: neutrophil chemotaxis in Boyden chambers to zymosan activated serum; assay type: cell-based
# Source text: Human recombinant interleukin-1α (IL-1) was obtained from Hoffmann-LaRoche, Inc. (Nutley, N.J.), frozen inaliquots and thawed daily for use. Ketamine hydrochloride was obtained from Parke-Davis (Morris Plains, N.J.), xylazine from Haver (New York, N.J.), ^125I labeled bovine serum albumin (BSA) from ICN Radiochemicals (Irvine, Calif.), and heparin sodium from Elkins-Sinn, Inc. (Cherry Hill, N.J.). All other reagents were purchased from Sigma Chemical Co. (St. Louis, Mo.). Neutrophils were purified from human blood by well described methods. Venous blood was anticoagulated with heparin and the cellular elements were separated from platelet-rich plasma by centrifugation. Cell pellets were resuspended in platelet-poor plasma and diluted 1:4 with 6% dextran (Pharmacia Fine Chemicals, Piscataway, N.J.) in saline. Red cells were separated from leukocytes by sedimentation. Leukocyte-rich supernatants were then aspirated, underlain with Ficoll-Hypaque (Pharmacia Fine Chemicals), and centrifuged at 275×g to separate neutrophils and monocytes. […]
# Each sample was run in triplicate. Unstimulated locomotion was measured using control neutrophils in Hank's Balanced Salt Solution (HBSS) in the top chamber and HBSS in the bottom chamber. Stimulated locomotion was measured using twice-washed neutrophils in HBSS in the top chamber with and without Lisofylline and zymosan-activated serum (ZAS) in the bottom chamber. […] Indices of unstimulated or stimulated locomotion were expressed as the number of neutrophils migrating through the filter in 5 random, high-power objective fields (HPF).
# Neutrophil chemotactic activity was determined by Boyden chamber assay and quantitated as the number of migrating PMN/5HPF using zymosan-activated serum (ZAS) as the chemoattractant (Repine et al., J. Reticuloendo. Soc. 24:217, 1978). Neutrophil adherence was assessed by quantitating the percentage of neutrophils adhering to nylon fibers following addition of phorbol myristate acetate (PMA 10-^6M, Sigma) (Rasp et al., J. Reticuloendo. Soc. 25:101, 1979). […]
# [2] = hemorrhaged/resuscitated mice, 100 mg/kg every 8 hours, 9 doses, 3 days, not significantly different from normal
smiles,measurement,setting,value
"C[C@@H](O)CCCCn1c(=O)c2c(ncn2C)n(C)c1=O [Lisofylline, 1-R-(5-hydroxyhexyl)-3,7-dimethylxanthine]",number of neutrophils in the pulmonary interstitium,"[1]; hemorrhaged mice treated, versus hemorrhaged/resuscitated untreated, 3 days",significantly decreased
same,degree of interstitial edema,[1]; [2],minimal
same,degree of intraaveolar hemorrhage,[1]; [2],minimal
same,number of neutrophils in the lungs,"[1]; normal mice treated, versus normal untreated",significantly increased
same,lung injury,[1]; rodent model of hemorrhage and reperfusion,completely prevented
same,Neutrophil Chemotaxis in Boyden Chambers in vitro,human neutrophils; Neutrophils + ZAS + Lisofylline 1 μM,15.0 (2)δ PMN/5HPF
same,Neutrophil Chemotaxis in Boyden Chambers in vitro,human neutrophils; Neutrophils + ZAS + Lisofylline 50 μM,11.1 (2)δ PMN/5HPF
same,stimulated human neutrophil chemotaxis,"human neutrophils; ZAS as chemoattractant, in vitro",reduced
